The numbers were not newly measured in patent US20090011041A1, “Compositions for Correcting Age Related Changes of a Human Endocrine System and Methods for Producing a Pharmaceutical Form Bases on Said Compositions” (priority 2004, published 2009), which cites them from elsewhere.

Where two headings read alike, the source gives them in different places.

For data set [1] the following is noted: DHEA 50 mg/day, placebo effect less than 10%.
In data set [2] the test system is production of IL-6 by peripheral mononuclears. As to conditions: dose-dependent manner; p<0.01.
Data set [3] concerns diabetic mice.
For data set [4] the following is noted: for distribution volume: after PO use.
Data set [5] has as its system IGF-1 level. As to conditions: elderly patients; 50 mg/day; p<0.01.

Take `C[C@]12CC[C@H](O)CC1=CC[C@@H]1[C@@H]2CC[C@]2(C)C(=O)CC[C@@H]12` [DHEA, dehydroepiandrosterone]: in data set [1] (females), the “improvement in the physical and mental state, females” value is reported as 84%. In addition, in data set [1] (males), the “improvement in the physical and mental state, males” value is given as 67%. Moreover, the “production of IL-6 by peripheral mononuclears” value (shortened to “production”) in data set [2] is reported as “inhibit the production of IL-6”. Also, in data set [3], the hyperglycemia and hyperinsulinemia entry is “reduces hyperglycemia and hyperinsulinemia”. The distribution volume in data set [4] is 17 to 38.5 L. The half-life period in data set [4] (b32) is 0.25 to 0.5 h. Moreover, in data set [4] (b33), the half-life elimination period is 0.25 to 0.633 h. The “metabolic clearance rate (MCR)” value in data set [4] (in vivo) was 2000 L/day. Besides, the IGF-1 level result in data set [5] is “increases the IGF-1 level”.
As for `C[C@]12CC[C@H](OS(=O)(=O)O)CC1=CC[C@@H]1[C@@H]2CC[C@]2(C)C(=O)CC[C@@H]12` [DHEA-S, DHEA-sulfate], the “production” value in data set [2] was “inhibit the production of IL-6”. In data set [4], the distribution volume was 8.5 to 9.3 L. The results for the half-life period in data set [4] (b32) and in data set [4] (b33) were 7 to 10 h and 7 to 22 h, respectively. In addition, the “metabolic clearance rate (MCR)” value in data set [4] (in vivo) was 5 to 20 L/day. The “renal excretion, share of the elimination of DHEA-S and its metabolites” value in data set [4] (in vivo) is reported as 51-73%.
With `C[C@]12CCC(=O)C=C1CC[C@@H]1[C@@H]2CC[C@]2(C)C(=O)CC[C@@H]12` [androstenedione], in data set [2], the “production” value was “inhibit the production of IL-6”.
